For one assay, the target named is T1, hM4 muscarinic receptor (Homo sapiens, UniProt P08173).
T1 construct: gene CHRM4
T1 sequence (P08173 1-479): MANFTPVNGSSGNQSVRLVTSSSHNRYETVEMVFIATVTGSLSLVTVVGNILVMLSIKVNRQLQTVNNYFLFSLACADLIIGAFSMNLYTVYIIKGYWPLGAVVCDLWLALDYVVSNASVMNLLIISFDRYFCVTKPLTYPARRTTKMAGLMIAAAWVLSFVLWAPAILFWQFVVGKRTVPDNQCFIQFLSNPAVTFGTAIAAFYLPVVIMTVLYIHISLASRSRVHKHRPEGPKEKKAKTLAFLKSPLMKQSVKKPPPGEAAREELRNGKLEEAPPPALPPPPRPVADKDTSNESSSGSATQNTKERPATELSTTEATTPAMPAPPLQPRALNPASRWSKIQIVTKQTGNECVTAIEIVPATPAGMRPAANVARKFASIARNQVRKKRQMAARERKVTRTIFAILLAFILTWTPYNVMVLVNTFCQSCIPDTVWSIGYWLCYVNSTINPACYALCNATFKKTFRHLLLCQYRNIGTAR
The assay is described as follows: cell-based.

The target of the next assay is T2, hM3 muscarinic receptor (Homo sapiens, UniProt P20309).
T2 construct: gene CHRM3; full-length receptor stably expressed in CHO cells (Missouri S&T cDNA Resource Center)
T2 sequence (P20309 whole entry): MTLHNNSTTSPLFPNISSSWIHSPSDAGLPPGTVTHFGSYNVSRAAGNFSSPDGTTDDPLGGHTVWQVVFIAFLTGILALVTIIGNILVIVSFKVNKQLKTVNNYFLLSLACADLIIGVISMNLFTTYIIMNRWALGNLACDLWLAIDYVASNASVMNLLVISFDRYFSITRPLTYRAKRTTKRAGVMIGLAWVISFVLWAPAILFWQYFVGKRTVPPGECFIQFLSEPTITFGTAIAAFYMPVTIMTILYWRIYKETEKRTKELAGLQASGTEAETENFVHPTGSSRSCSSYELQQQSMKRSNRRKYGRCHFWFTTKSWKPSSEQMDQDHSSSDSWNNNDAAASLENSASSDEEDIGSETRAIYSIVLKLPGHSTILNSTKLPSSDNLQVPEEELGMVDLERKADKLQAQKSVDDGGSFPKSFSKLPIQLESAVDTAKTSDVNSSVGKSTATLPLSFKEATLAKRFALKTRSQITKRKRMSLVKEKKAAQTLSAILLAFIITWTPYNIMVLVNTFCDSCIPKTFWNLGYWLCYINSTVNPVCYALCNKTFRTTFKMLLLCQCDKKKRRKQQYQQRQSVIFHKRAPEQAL
The assay is described as follows: Fura-2 intracellular calcium microfluorometry, CHO cells. Format: cell-based. To be noted: read-out: oxotremorine / pEC50 (converted). The text has this:
Fura-2 intracellular calcium microfluorometry, CHO cells on hM3 muscarinic receptor
On the technique in general: A change in cytosolic calcium serves as a functional read-out for many receptors and channels.

The target of the next assay is T3, hM1 muscarinic receptor (Homo sapiens, UniProt P11229).
T3 construct: gene CHRM1
T3 sequence (P11229 1-460): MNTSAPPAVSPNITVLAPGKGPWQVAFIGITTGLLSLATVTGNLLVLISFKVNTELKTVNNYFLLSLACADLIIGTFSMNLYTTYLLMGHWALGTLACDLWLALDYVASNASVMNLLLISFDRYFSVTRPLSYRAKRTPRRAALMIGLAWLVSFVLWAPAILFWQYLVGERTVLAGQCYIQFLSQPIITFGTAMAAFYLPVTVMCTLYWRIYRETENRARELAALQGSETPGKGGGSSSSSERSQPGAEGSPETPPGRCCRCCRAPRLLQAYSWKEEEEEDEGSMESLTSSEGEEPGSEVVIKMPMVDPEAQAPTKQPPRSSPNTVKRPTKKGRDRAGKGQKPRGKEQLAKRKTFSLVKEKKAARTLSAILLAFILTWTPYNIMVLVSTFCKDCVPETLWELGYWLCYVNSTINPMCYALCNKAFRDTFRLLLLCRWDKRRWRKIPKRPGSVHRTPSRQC
In words: cell-based. The text has this: Fura-2 intracellular calcium microfluorometry, CHO cells on hM1 muscarinic receptor

For a further assay, the target named is T4, hM2 muscarinic receptor (Homo sapiens, UniProt P08172).
T4 construct: gene CHRM2; full-length receptor stably expressed in CHO cells; human G16 transiently co-transfected for calcium assay
T4 sequence (P08172 1-466): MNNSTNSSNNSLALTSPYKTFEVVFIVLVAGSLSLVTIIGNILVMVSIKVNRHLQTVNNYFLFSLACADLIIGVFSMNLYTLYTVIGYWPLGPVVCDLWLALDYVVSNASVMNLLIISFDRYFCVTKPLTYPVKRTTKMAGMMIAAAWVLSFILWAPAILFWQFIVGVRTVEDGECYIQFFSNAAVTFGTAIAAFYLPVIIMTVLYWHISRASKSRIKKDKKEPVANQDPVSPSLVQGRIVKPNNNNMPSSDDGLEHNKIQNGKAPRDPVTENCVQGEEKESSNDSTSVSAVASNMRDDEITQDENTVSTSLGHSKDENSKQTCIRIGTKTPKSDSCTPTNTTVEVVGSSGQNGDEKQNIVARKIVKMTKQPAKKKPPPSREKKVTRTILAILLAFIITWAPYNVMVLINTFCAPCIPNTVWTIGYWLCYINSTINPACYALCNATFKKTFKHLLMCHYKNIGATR
The assay is described as follows: Fura-2 intracellular calcium microfluorometry, CHO cells. Format: cell-based. The settings on record: read-out: oxotremorine / pEC50 (converted). The source says: Fura-2 intracellular calcium microfluorometry, CHO cells on hM2 muscarinic receptor

Another assay deals with T5, hM5 muscarinic receptor (Homo sapiens, UniProt P08912).
T5 construct: gene CHRM5; full-length receptor stably expressed in CHO cells (Missouri S&T cDNA Resource Center)
T5 sequence (P08912 1-532): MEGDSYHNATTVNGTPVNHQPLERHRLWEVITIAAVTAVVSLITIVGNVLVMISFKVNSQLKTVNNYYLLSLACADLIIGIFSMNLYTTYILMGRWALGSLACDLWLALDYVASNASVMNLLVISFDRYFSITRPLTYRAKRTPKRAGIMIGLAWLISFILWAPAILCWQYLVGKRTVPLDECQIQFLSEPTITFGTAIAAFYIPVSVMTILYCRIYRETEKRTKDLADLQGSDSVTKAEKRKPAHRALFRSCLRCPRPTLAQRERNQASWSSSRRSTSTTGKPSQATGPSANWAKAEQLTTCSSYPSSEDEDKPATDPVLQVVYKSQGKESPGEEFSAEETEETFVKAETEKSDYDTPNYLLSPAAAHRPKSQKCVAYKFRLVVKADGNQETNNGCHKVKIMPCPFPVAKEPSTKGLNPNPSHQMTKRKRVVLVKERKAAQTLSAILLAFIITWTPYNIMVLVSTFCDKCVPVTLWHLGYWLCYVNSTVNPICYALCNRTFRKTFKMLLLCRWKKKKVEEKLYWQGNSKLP
Described as above. Format: cell-based. The settings on record: read-out: oxotremorine / pEC50 (converted). The source says: Fura-2 intracellular calcium microfluorometry, CHO cells on hM5 muscarinic receptor

Consider `O=C1CCCN1CC#CCN1CCCC1` [oxotremorine], for which the EC50 at hM4 muscarinic receptor is 67.6 nM; at hM3 muscarinic receptor, 46.8 nM; on hM1 muscarinic receptor it was 46.8 nM; on hM2 muscarinic receptor it was 64.6 nM; at hM5 muscarinic receptor, 51.3 nM.

Values taken from publication PMC3928307, “Long-Term Activation upon Brief Exposure to Xanomleline Is Unique to M1 and M4 Subtypes of Muscarinic Acetylcholine Receptors” (PLoS ONE, 2014).
